In PubChem BioAssay (NCI):
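Assay format: 96-well plates, 48-hour exposure. The concentration for 50% growth inhibition is given as GI50. TGI marks complete inhibition of growth.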

Tests used:
Experiment in all cases: NCI anticancer screen, dose series, 48 h
A549 NSCLC = test system: A549 NSCLC
HT29 colon = test system: HT29 colon
M14 melanoma = test system: M14 melanoma
MCF7 breast = test system: MCF7 breast
MOLT-4 leukemia = test system: MOLT-4 leukemia
OVCAR-8 ovarian = test system: OVCAR-8 ovarian
PC-3 prostate = test system: PC-3 prostate
SF-295 CNS = test system: SF-295 CNS
SK-MEL-2 melanoma = test system: SK-MEL-2 melanoma
SNB-75 CNS = test system: SNB-75 CNS

Compound | GI50 (A549 NSCLC) [µM] | TGI (A549 NSCLC) [µM] | GI50 (HT29 colon) [µM] | TGI (HT29 colon) [µM] | GI50 (M14 melanoma) [µM] | TGI (M14 melanoma) [µM] | GI50 (MCF7 breast) [µM] | TGI (MCF7 breast) [µM] | GI50 (MOLT-4 leukemia) [µM] | TGI (MOLT-4 leukemia) [µM] | GI50 (OVCAR-8 ovarian) [µM] | TGI (OVCAR-8 ovarian) [µM] | GI50 (PC-3 prostate) [µM] | TGI (PC-3 prostate) [µM] | GI50 (SF-295 CNS) [µM] | TGI (SF-295 CNS) [µM] | GI50 (SK-MEL-2 melanoma) [µM] | TGI (SK-MEL-2 melanoma) [µM] | GI50 (SNB-75 CNS) [µM] | TGI (SNB-75 CNS) [µM]
Cc1c2c(nn1-c1ccc(S/N=C3\SCC(=O)CN3c3ccccc3)cc1)-c1ccccc1CC2 | > 50 | > 50 | 34.5 | > 50 | 13.4 | 43.7 | 7.79 | 36.7 | 19.6 | > 50 | > 50 | > 50 | 20.4 | > 50 | > 50 | > 50 | 18.2 | 47 | > 50 | > 50
O=Nc1c(-c2cccc([N+](=O)[O-])c2)nc2ncccn12 | 21.8 | 56.9 | 9.84 | 44.1 | 12 | 26.8 | 3.51 | 22.6 | 1.79 | 5.31 | 8.9 | 43.8 | 13.7 | 36.3 | 21.9 | 66.5 | 14.7 | 38.1 | 10.9 | 23.8
Nc1nc(Cl)nc2c1ncn2C1O[C@H](CO)[C@@H](O)[C@@H]1F (stereo partly specified) | 0.379 | > 100 |  | > 100 | 0.0876 | 0.292 | 0.185 | > 100 | 0.033 |  | 0.0423 | > 100 | > 24.6 | > 100 | 2.87 | > 100 | > 100 | > 100 | 2.25 | > 100
CCOC1NC(=O)Oc2ccccc21 (stereo unspecified) |  | > 100 |  | > 100 |  | > 100 |  | > 100 |  | > 100 |  | > 100 |  | > 100 |  | > 100 |  | > 100 |  | > 100
O=C1c2cc3c(cc2-c2c1c1ccc([N+](=O)[O-])cc1c(=O)n2CCCCl)OCO3 | 0.523 | > 100 | 1.07 | > 100 | 1.52 | > 100 | 0.333 |  | 0.0528 | > 100 | > 100 | > 100 | 2.4 | > 100 | 0.066 | > 100 | > 100 | > 100 | 3.35 | > 100
CCOc1ccc2c(c1)/C(=C\C=C\C1CC(C)C3CC(OCC)CCC3N1CC)CC(C)N2CC (stereo unspecified) | 0.304 | 1.46 | 0.521 | 1.69 | 1.43 | 3 | 0.627 | 2.43 | 1.47 | 4.14 | 0.61 | 2.19 | 0.558 | 2.28 | 0.418 | 1.68 | 1.66 | 3.35 | 0.599 | 1.92
NC(=O)NC(=O)CI | 18.8 | 37.4 | 8.97 | 25.1 | 5.12 | 17.4 | 3.33 | 16.6 | 1.74 | 4.13 | 3.23 | 11.9 | 12.6 | 26.8 | 23.9 | > 57.7 | 5.78 | 18.7 | 15.2 | 29.4
COc1ccccc1Nc1nc(-c2cc3cccc(C(F)(F)F)c3oc2=O)cs1 | 0.261 | > 100 | 0.126 | 11.9 | 0.111 |  | 0.0574 | > 100 | 0.5 | > 100 | 0.301 | > 100 | 0.162 | > 100 | 0.0353 | 24.2 | 0.262 | > 100 | 0.0305 | 16.7
O=C(NC(=S)NS(=O)(=O)c1ccc(N2N=C3c4ccccc4CC3C2c2cccs2)cc1)c1ccccc1 (stereo unspecified) | 20.3 | > 100 | 46 | > 100 | 21.5 | 58.9 | > 100 | > 100 | 26.2 | 69.9 | 20.3 | > 100 | 29.7 | > 100 | 25.4 | 78.6 | 44 | > 100 | > 100 | > 100
CCOC(=O)C(=Cc1ccccc1Br)C(=O)OCC |  | > 100 |  | 10.9 |  | 2.48 |  | > 100 |  | 5.61 |  | 5.6 |  | 14.9 |  | 8.88 |  | 5.31 |  | 75.5
CC(C)(C)c1ccc(-c2nnc(SCc3ccc(Cl)cc3)n2-c2cccc(C(F)(F)F)c2)cc1 |  | > 100 |  | > 100 |  | > 100 |  | > 100 |  | > 67.1 |  | > 100 |  | > 100 |  | > 100 |  | > 69.5 |  | > 94.1
Cc1nc2cc(O)c(O)cc2cc1Oc1ccc(NC(=O)Nc2ccc(Cl)c(Cl)c2)cc1 | 8.99 | 26.2 | 11.9 | > 32.5 | 5.97 | 13.8 | 8.71 | > 32.5 | 8.87 | > 32.5 | 5.77 | > 32.5 | 4.36 | > 32.5 | 11.4 | > 32.5 | 8.83 | 21.1 | 7.73 | 28.9
CCN1C(=O)N(c2c(F)c(OC)cc(OC)c2F)Cc2cnc3[nH]c(CN4CCOCC4)cc3c21 | 2.83 | > 100 | 2.84 | > 100 | 1.32 | > 100 | 8.04 | > 100 | 2.56 | 59.9 | 3.98 | > 100 | 4.34 | > 100 | 3.83 | > 100 | 1.08 | 41.8 | 1.13 | 26.5
COC(=O)c1ccc2c(c1)nc(-c1ccc(Cl)cc1)n2-c1cc(C(C)(C)C)[nH]n1 | 4.03 | 94.5 | 3.65 | 15.4 | 2.9 | 8.22 | 2.79 | 12.3 | 5.48 | > 100 | 7.33 | 58.2 | 2.93 | 15.7 | 2.48 | 8.98 | 3.89 | 18.1 | 2.14 | 12.6
